Measured values from PMC12396409, “Screening and hit evaluation of a microbial metabolite library against the pathogenic Plasmodium falciparum and Toxoplasma gondii parasites” (International Journal for Parasitology: Drugs and Drug …, 2025).
Where two headings read alike, the source gives them in different places.

Tests used:
[1] = system: P. falciparum 3D7 parasites; experiment: P. falciparum growth inhibition assay, 1-cycle (72 h treatment), SYBR DNA staining (library screen at 2 μg/mL and dose-response); format: cell-based, Plasmodium falciparum
[2] = system: P. falciparum 3D7 parasites; experiment: P. falciparum growth inhibition assay, 2-cycle (120 h treatment), delayed-death screen and dose-response; format: cell-based, Plasmodium falciparum
[3] = system: T. gondii RH strain (RH-Tub-eYFP) tachyzoites; experiment: microbe, parasite or virus in culture; format: cell-based, Toxoplasma gondii; settings: for percent parasite growth at 2 µg/mL: Toxoplasma gondii
[4] = P. falciparum 3D7, 72 h, library screen at 2 μg/mL, % growth, replicate 1
[5] = P. falciparum 3D7, 72 h, library screen at 2 μg/mL, % growth, replicate 2
[6] = P. falciparum 3D7, 120 h, library screen at 2 μg/mL, % growth, replicate 1
[7] = P. falciparum 3D7, 120 h, library screen at 2 μg/mL, % growth, replicate 2
[8] = T. gondii RH, 72 h, library screen at 2 μg/mL, % growth, replicate 1
[9] = T. gondii RH, 72 h, library screen at 2 μg/mL, % growth, replicate 2
[10] = P. falciparum, 72 h, screen at 2 μg/mL, replicate 1
[11] = P. falciparum, 72 h, screen at 2 μg/mL, replicate 2
[12] = P. falciparum, 120 h, screen at 2 μg/mL, replicate 1
[13] = P. falciparum, 120 h, screen at 2 μg/mL, replicate 2
[14] = T. gondii, 72 h, screen at 2 μg/mL, replicate 1
[15] = T. gondii, 72 h, screen at 2 μg/mL, replicate 2
[16] = library screen at 2 μg/mL, 72 h, % growth, replicate 1
[17] = library screen at 2 μg/mL, 72 h, % growth, replicate 2
[18] = library screen at 2 μg/mL, 120 h, % growth, replicate 1
[19] = library screen at 2 μg/mL, 120 h, % growth, replicate 2
[20] = active against the parasite at 2 μg/mL, no anti-tumour (NS-1) or cytotoxic (fibroblast) activity at 5 μg/mL
[21] = T. gondii, 72 h, 2 μg/mL, values are growth (% of control)

CCCCC(C)C=C(C)C=C(C)C(=O)NC1=CC(O)(C=CC=CC=CC(=O)NC2=C(O)CCC2=O)C2OC2C1=O (centres unmarked) [BIA-M1905]
Pf_72h_%Growth_Rep1 [1, 4]: 81.84%
Pf_72h_%Growth_Rep2 [1, 5]: 57.54%
Pf_120h_%Growth_Rep1 [2, 6]: 83.56%
Pf_120h_%Growth_Rep2 [2, 7]: 90.34%
Tg_72h_%Growth_Rep1 [3, 8]: 110.20%
Tg_72h_%Growth_Rep2 [3, 9]: 85.96%

CC1=C[C@@H]2/C=C(\C)CC[C@H](O)[C@H](O)/C=C/C(=O)[C@]23C(=O)N[C@@H](CC(C)C)[C@@H]3[C@@H]1C [Aspochalasin D]
activity at 2 µg/mL ([1]; Plasmodium falciparum, 3D7, 72 h, library screen at 2 μg/mL, 72 h, % growth, replicate 1, read-out: Pf_72h_%Growth_Rep1): 71.8%
activity at 2 µg/mL ([1]; Plasmodium falciparum, 3D7, 72 h, library screen at 2 μg/mL, 72 h, % growth, replicate 2, read-out: Pf_72h_%Growth_Rep2): 78.2%
activity at 2 µg/mL ([2]; Plasmodium falciparum, 3D7, 120 h, library screen at 2 μg/mL, 120 h, % growth, replicate 1, read-out: Pf_120h_%Growth_Rep1): 74.4%
activity at 2 µg/mL ([2]; Plasmodium falciparum, 3D7, 120 h, library screen at 2 μg/mL, 120 h, % growth, replicate 2, read-out: Pf_120h_%Growth_Rep2): 80.7%
percent parasite growth at 2 µg/mL ([3]; 72 h, library screen at 2 μg/mL, 72 h, % growth, replicate 1, read-out: Tg_72h_%Growth_Rep1): 5.85%
percent parasite growth at 2 µg/mL ([3]; 72 h, library screen at 2 μg/mL, 72 h, % growth, replicate 2, read-out: Tg_72h_%Growth_Rep2): 2.85%

CCCC(O)C(O)C1CC(OC)=CC(=O)O1 (centres unmarked) [BIA-H1068]
Pf_72h_%Growth_Rep1 [1, 4]: 88.88%
Pf_72h_%Growth_Rep2 [1, 5]: 77.83%
Pf_120h_%Growth_Rep1 [2, 6]: 95.79%
Pf_120h_%Growth_Rep2 [2, 7]: 147.07%
Tg_72h_%Growth_Rep1 [3, 8]: 107.81%
Tg_72h_%Growth_Rep2 [3, 9]: 92.55%

C/C=C/C[C@@H](C)[C@@H](O)[C@H]1C(=O)N[C@@H]([C@@H](C)O)C(=O)N(C)CC(=O)N(C)[C@@H](CC(C)C)C(=O)N[C@@H](C(C)C)C(=O)N(C)[C@@H](CC(C)C)C(=O)N[C@@H](C)C(=O)N[C@H](C)C(=O)N(C)[C@@H](CC(C)C)C(=O)N(C)[C@@H](CC(C)C)C(=O)N(C)[C@@H](C(C)C)C(=O)N1C [Cyclosporin C]
Pf_72h_%Growth_Rep1 [1, 10]: 11.25%
Pf_72h_%Growth_Rep2 [1, 11]: 0.59%
Pf_120h_%Growth_Rep1 [2, 12]: 31.80%
Pf_120h_%Growth_Rep2 [2, 13]: 7.29%
Tg_72h_%Growth_Rep1 [3, 14]: 44.04%
Tg_72h_%Growth_Rep2 [3, 15]: 47.65%

CC[C@H](C)[C@H]1O[C@]2(C=C[C@@H]1C)C[C@@H]1C[C@@H](C/C=C(\C)[C@@H](O[C@H]3C[C@H](OC)[C@@H](O[C@H]4C[C@H](OC)[C@H](O)[C@H](C)O4)[C@H](C)O3)[C@@H](C)C=C/C=C3\CO[C@@H]4[C@H](O)C(C)C=C(C(=O)O1)[C@]34O)O2 (some centres unmarked) [Avermectin B1a, delta2-]
Pf_72h_%Growth_Rep1 [1, 16]: 4.74%
Pf_72h_%Growth_Rep2 [1, 17]: 5.45%
Pf_120h_%Growth_Rep1 [2, 18]: 4.88%
Pf_120h_%Growth_Rep2 [2, 19]: -9.99%
Tg_72h_%Growth_Rep1 [3, 16]: 29.57%
Tg_72h_%Growth_Rep2 [3, 17]: 35.45%

COC1=C(O)c2c(O)cc(C)c3c(O)cc(O)c(c23)C1=O [Funalenone]
Pf_72h_%Growth_Rep1 [1, 16]: 89.99%
Pf_72h_%Growth_Rep2 [1, 17]: 108.10%
Pf_120h_%Growth_Rep1 [2, 18]: 97.73%
Pf_120h_%Growth_Rep2 [2, 19]: 107.04%
Tg_72h_%Growth_Rep1 [3, 16]: 131.40%
Tg_72h_%Growth_Rep2 [3, 17]: 92.93%

COc1ccc2c3c([nH]c2c1)C(C)(C)C=CN1C(=O)[C@H](C)NC(=O)/C1=C/3 [Cycloechinulin]
Pf_72h_%Growth_Rep1 [1, 10]: 63.19%
Pf_72h_%Growth_Rep2 [1, 11]: 64.05%
Pf_120h_%Growth_Rep1 [2, 12]: 51.02%
Pf_120h_%Growth_Rep2 [2, 13]: 53.71%
Tg_72h_%Growth_Rep1 [3, 14]: 136.66%
Tg_72h_%Growth_Rep2 [3, 15]: 103.07%

CN1C(=O)[C@]23CC4=CC=C[C@H](O)[C@H]4N2C(=O)[C@@]1(CO)SS3 [BIA-G1260]
Pf_72h_%Growth_Rep1 [1, 4]: 14.96%
Pf_72h_%Growth_Rep2 [1, 5]: 8.82%
Pf_120h_%Growth_Rep1 [2, 6]: 35.56%
Pf_120h_%Growth_Rep2 [2, 7]: 25.95%
Tg_72h_%Growth_Rep1 [3, 8]: 1.56%
Tg_72h_%Growth_Rep2 [3, 9]: 0.82%

CC(=O)O[C@@H]1/C=C\[C@@](C)(O)C(=O)[C@@H](C)C/C=C\[C@H]2[C@H](O)C(C)=C(C)[C@H]3C(Cc4ccccc4)NC(=O)[C@]132 (some centres unmarked) [cytochalasin C]
Pf_72h_%Growth_Rep1 [1, 10]: 7.71%
Pf_72h_%Growth_Rep2 [1, 11]: 8.08%
selectivity for P. falciparum in the screens [1, 20]: active selectively against P. falciparum and T. gondii
Pf_120h_%Growth_Rep1 [2, 12]: 12.52%
Pf_120h_%Growth_Rep2 [2, 13]: 10.45%
Tg_72h_%Growth_Rep1 [3, 14]: 0.57%
Tg_72h_%Growth_Rep2 [3, 15]: 15.53%
selectivity for T. gondii in the screens [3, 20]: active selectively against P. falciparum and T. gondii

CO[C@@H]1[C@@H](O[C@@H]2O[C@H](C)[C@@H](O[C@H]3C[C@@](C)(O)[C@@H](OC(=O)CC(C)C)[C@H](C)O3)[C@H](N(C)C)[C@H]2O)[C@@H](CC=O)C[C@@H](C)[C@@H](O)/C=C/C=C/C[C@@H](C)OC(=O)C[C@H]1OC(C)=O [Josamycin (Leucomycin A3), reference compound]
activity at 2 µg/mL ([1]; Plasmodium falciparum, 3D7, 72 h, P. falciparum, 2 μg/mL, 72 h; read-out: 1) Growth (%) at 72 h): 53.5%
3) Fold change (72 h/120 h) [2]: 5.3
activity at 2 µg/mL ([2]; Plasmodium falciparum, 3D7, 120 h, P. falciparum, 2 μg/mL, 120 h; read-out: 2) Growth (%) at 120 h): 10.1%
Mean ([3]; T. gondii, 72 h, 2 μg/mL, mean of both replicates, growth (% of control)): 20.93
Replicate 1 [3, 21]: 18.33
Replicate 2 [3, 21]: 23.52

COc1cc(-c2ccc(O)cc2)c(OC)c(O)c1-c1ccc(O)cc1 [Terphenyllin]
activity at 2 µg/mL ([1]; Plasmodium falciparum, 3D7, P. falciparum, 72 h, screen at 2 μg/mL, replicate 1, read-out: Pf_72h_%Growth_Rep1): 87.2%
activity at 2 µg/mL ([1]; Plasmodium falciparum, 3D7, P. falciparum, 72 h, screen at 2 μg/mL, replicate 2, read-out: Pf_72h_%Growth_Rep2): 91.8%
activity at 2 µg/mL ([2]; Plasmodium falciparum, 3D7, P. falciparum, 120 h, screen at 2 μg/mL, replicate 1, read-out: Pf_120h_%Growth_Rep1): 179%
activity at 2 µg/mL ([2]; Plasmodium falciparum, 3D7, P. falciparum, 120 h, screen at 2 μg/mL, replicate 2, read-out: Pf_120h_%Growth_Rep2): 102%
percent parasite growth at 2 µg/mL ([3]; 72 h, T. gondii, 72 h, screen at 2 μg/mL, replicate 1, read-out: Tg_72h_%Growth_Rep1): 84.9%
percent parasite growth at 2 µg/mL ([3]; 72 h, T. gondii, 72 h, screen at 2 μg/mL, replicate 2, read-out: Tg_72h_%Growth_Rep2): 103%

Cc1cc(=O)c2c(o1)O[C@@]1(C)CC[C@@H]3[C@@]4(C)CC[C@H](O)C(C)(C)[C@@H]4CC[C@@]3(C)[C@@H]1C2 [Chevalone E]
Pf_72h_%Growth_Rep1 [1, 10]: 103.28%
Pf_72h_%Growth_Rep2 [1, 11]: 92.51%
Pf_120h_%Growth_Rep1 [2, 12]: 162.52%
Pf_120h_%Growth_Rep2 [2, 13]: 100.96%
Tg_72h_%Growth_Rep1 [3, 14]: 83.71%
Tg_72h_%Growth_Rep2 [3, 15]: 88.30%

CC(=O)C1=C(O)C=C2Oc3c(C(N)=O)c(O)cc(O)c3[C@]2(C)C1=O [Cercosporamide]
Pf_72h_%Growth_Rep1 [1, 10]: 93.73%
Pf_72h_%Growth_Rep2 [1, 11]: 83.00%
Pf_120h_%Growth_Rep1 [2, 12]: 127.36%
Pf_120h_%Growth_Rep2 [2, 13]: 89.41%
Tg_72h_%Growth_Rep1 [3, 14]: 84.28%
Tg_72h_%Growth_Rep2 [3, 15]: 89.90%

CCC(C)C1OC2(CCC1C)CC1CC(CC=C(C)C(OC3CC(OC)C(O)C(C)O3)C(C)C=CC=C3COC4C(O)C(C)=CC(C(=O)O1)C34O)O2 (centres unmarked) [BIA-I1150]
Pf_72h_%Growth_Rep1 [1, 4]: 84.82%
Pf_72h_%Growth_Rep2 [1, 5]: 14.34%
Pf_120h_%Growth_Rep1 [2, 6]: 91.15%
Pf_120h_%Growth_Rep2 [2, 7]: 112.03%
Tg_72h_%Growth_Rep1 [3, 8]: 134.07%
Tg_72h_%Growth_Rep2 [3, 9]: 88.13%

COc1ccc2[nH]c3c(C)c4ccncc4c(C)c3c2c1 [BIA-M1952]
Pf_72h_%Growth_Rep1 ([1]; P. falciparum 3D7, 72 h, parasite screen at 2 μg/mL, % growth, replicate 1): 9.89%
Pf_72h_%Growth_Rep2 ([1]; P. falciparum 3D7, 72 h, parasite screen at 2 μg/mL, % growth, replicate 2): -0.96%
Pf_120h_%Growth_Rep2 [2]: -1.49%
Pf_120h_%Growth_Rep1 ([2]; P. falciparum 3D7, 120 h, parasite screen at 2 μg/mL, % growth, replicate 1): 10.32%
Tg_72h_%Growth_Rep1 ([3]; T. gondii, 72 h, parasite screen at 2 μg/mL, % growth, replicate 1): 3.28%
Tg_72h_%Growth_Rep2 ([3]; T. gondii, 72 h, parasite screen at 2 μg/mL, % growth, replicate 2): 1.49%
